Reference: publication PMC12040169 (PLOS Biology, 2025)

Test: in vitro
Details: human, hela cells, % viability

| SMILES | viability at 28.5 h, 10 µM [%] |
| --- | --- |
| CN(C)S(=O)(=O)NC1CC(C)(C)Cc2c1cnn2-c1ccccc1 (stereo not shown) [CBK307533] | 94.5 |
| O=C1CCCN1CCC1CCN(c2nccc(CCC(F)(F)F)n2)CC1 [CBK307534] | 90.1 |
| CCC1C=CCN1S(=O)(=O)c1cccc(C(=O)NCc2cnn(C)c2)c1 (stereo not shown) [CBK307536] | 96.4 |
| CCC(=O)Oc1ccc(C(=O)N2CCN(c3ccccc3F)CC2)cc1 [CBK307538] | 103 |
| Cc1ccc(OC2(C(=O)N3CCCC3c3nccs3)CCNCC2)cc1 (stereo not shown) [CBK307539] | 94.6 |
| CCSc1nc(=O)c2c(n1C)NC(=O)CC2c1ccccc1 (stereo not shown) [CBK307541] | 107 |
| CCSc1nc(=O)c2c(n1C)NC(=O)CC2c1ccc(OC)cc1 (stereo not shown) [CBK307542] | 89.9 |
| Cc1n[nH]cc1CN(C)c1cc([C@H]2C[C@@H](N)C2)nc(C2CC2)n1 [CBK307544] | 110 |
| CCc1ccc(NC(=O)CN2CCN(c3ccccc3F)CC2)cc1 [CBK307549] | 112 |
| CC1CCc2c(sc(NC(=O)CCC(=O)O)c2C(=O)N2CCOCC2)C1 (stereo not shown) [CBK307550] | 94.1 |
| CCCn1cnnc1C(C)NC(=O)N(C)Cc1nc2cccc(C)c2[nH]1 (stereo not shown) [CBK307551] | 112 |
| Cc1nc(NCCc2cnc(=O)n(C)c2O)cc(C2CCOC2)n1 (stereo not shown) [CBK307559] | 93.2 |
| Cc1ccccc1-c1noc(CNC(Cn2ccnc2)C(C)C)n1 (stereo not shown) [CBK307560] | 89.1 |
| Cc1c(C)n(Cc2ccco2)c2ncnc(NCCCC(=O)O)c12 [CBK307562] | 90.7 |
| Cc1c(C)n(Cc2ccco2)c2ncnc(NCC(=O)O)c12 [CBK307563] | 101 |
| CCOC(=O)c1cn([C@H]2CC[C@H](O)CC2)cc(Oc2ccccc2)c1=O [CBK307565] | 108 |
| COCCn1c(=O)c2c(nc3oc(C(C)(C)C)cn32)n(C)c1=O [CBK307566] | 96.7 |
| CSCCC(Nc1ncnc2c1c(C)c(C)n2Cc1ccco1)C(=O)O (stereo not shown) [CBK307568] | 92.3 |
| O=C(Nc1ccc2c(c1)nc1n2CCOC1)C1CCCCC1 [CBK307570] | 90 |
| Cc1cc(=O)n2c3c(cc(S(=O)(=O)NC4CC4)cc13)CCC2 [CBK307572] | 87 |
| Cc1cc(C)n(CC(C)C(=O)Nc2cccnc2)n1 (stereo not shown) [CBK307573] | 97.5 |
| Cc1nnc(CCNC2CCN(c3ncnc4c(C)csc34)CC2)s1 [CBK307574] | 84.9 |

| SMILES | viability at 28.5 h, 10 µM [%] |
| --- | --- |
| COc1ccc(CNC(=O)c2cc(S(=O)(=O)N3CCOCC3)cs2)cc1 [CBK307577] | 95.7 |
| COc1ccc(CNC(=O)c2cc(S(=O)(=O)N(C)C)cs2)cc1 [CBK307579] | 87.1 |
| CCN1CCN(C(=O)CCNC(=O)c2cccc(OC)c2)CC1 [CBK307580] | 96.6 |
| CCCN1CC(NS(=O)(=O)c2cc(OC)c(Cl)cc2OC)CC1=O (stereo not shown) [CBK307581] | 96.7 |
| CCn1c(CC2CCN(C(=O)CCn3cc(C)cn3)CC2)nn(C)c1=O [CBK307584] | 89.7 |
| CCOC(=O)c1c(NC(=O)NCc2cccnc2)sc2c1CCC2 [CBK307585] | 87.3 |
| COc1ccc(CNC(=O)c2cc(S(=O)(=O)N(C)C)ccc2OC)cc1 [CBK307586] | 85.1 |
| CCN(CCn1cccn1)c1nc2nonc2nc1NC1CCCC1 [CBK307589] | 106 |
| Cn1c(=O)oc2ccc(C(=O)NCCN3CCCCC3CO)cc21 (stereo not shown) [CBK307594] | 78 |
| Cc1cc(=O)n2c3c(cc(S(=O)(=O)NCC4CCCO4)cc13)CC2 (stereo not shown) [CBK307595] | 103 |
| O=C(NCCCn1ccnc1)C1CCN(C(=O)c2cccc(Cl)c2)CC1 [CBK307596] | 116 |
| CN(Cc1nnc(-c2ccc(C(C)(C)C)cc2)o1)C(=O)C1CCCO1 (stereo not shown) [CBK307597] | 106 |
| O=C(O)C1(Oc2ccc3ncccc3c2)CCN(Cc2ccoc2)CC1 [CBK307598] | 90.9 |
| CN1CCOCC(CNC(=O)c2ccc(-c3ccccc3CO)cc2)C1 (stereo not shown) [CBK307601] | 91.1 |
| OC(Cc1ccccc1)c1cc2n(n1)CCN(Cc1ccsc1)C2 (stereo not shown) [CBK307603] | 89.5 |
| CCOC(=O)c1cnc2ccc(Cl)cc2c1NC [CBK307605] | 71.1 |
| CC(C(=O)Nc1ccc(S(N)(=O)=O)cc1)N1Cc2ccccc2C1=O (stereo not shown) [CBK307607] | 82.8 |
| COc1ccc2c(c1)CCN(C(=O)C1CCc3nn(C)c(=O)n3C1)C2 (stereo not shown) [CBK307613] | 93.3 |
| COCCNC(=O)c1cc2n(n1)C(C(F)(F)F)CC(c1cccs1)N2 (stereo not shown) [CBK307614] | 113 |
| COc1ccccc1CCNC(=O)N1CCC(Oc2cccnc2)CC1 [CBK307615] | 106 |
| Cc1cc(C)n(-c2ccc3nnc(CCC(=O)Nc4nccs4)n3n2)n1 [CBK307617] | 96.8 |
| Cc1nc(O)cc(C2CCN(C(=O)c3csc4c3CCCC4)CC2)n1 [CBK307618] | 104 |

| SMILES | viability at 28.5 h, 10 µM [%] |
| --- | --- |
| Cc1ccc2c(c1)OC(C)(C)CC2NS(C)(=O)=O (stereo not shown) [CBK307620] | 81.5 |
| Cc1ccc2c(c1)OC(C)(C)CC2NC(=O)C1CCN(C)CC1 (stereo not shown) [CBK307626] | 110 |
| CCn1cc(C(=O)Nc2nccs2)c(=O)c2ccc(C)nc21 [CBK307628] | 78.3 |
| O=C(NC1CC1)c1cnc2ccc(F)cc2c1O [CBK307629] | 82.4 |
| Cc1cc(C)n(C2CN(C(=O)NCCCOc3cccnc3)C2)n1 [CBK307632] | 84.1 |
| CCn1c(=O)oc2cc(NC(=O)NCCCc3csc(N)n3)ccc21 [CBK307633] | 79.7 |
| Cc1cc(C)n2nc(C(=O)NCCCn3ccnc3C(C)C)nc2n1 [CBK307635] | 94 |
| CCOc1ccc(NC(=O)N(Cc2cnn(C)c2)CC(C)C)cc1C#N [CBK307636] | 93 |
| CCCn1ncc(C(=O)NC(CC)c2cn3cccnc3n2)c1C (stereo not shown) [CBK307640] | 92.9 |
| COCCN(Cc1cnn(C)c1)C(=O)NCc1nc2c(C)cccc2o1 [CBK307642] | 86.8 |
| CN(Cc1nc(-c2ccccc2)no1)C(=O)COCC1CCCCO1 (stereo not shown) [CBK307643] | 106 |
| CCOc1ccc(-c2ccnc(N3CCOC(CN)C3)n2)cc1C(=O)O (stereo not shown) [CBK307644] | 84 |
| Cn1c(O)c(CCNc2cc(C3CCOC3)ncn2)cnc1=O (stereo not shown) [CBK307648] | 90.7 |
| CCOc1ccc(-c2ccnc(N3CCCC(C)(O)C3)n2)cc1C(=O)O (stereo not shown) [CBK307652] | 117 |
| Cc1ccc2c(c1)C(NC(=O)N(C)C1CCS(=O)(=O)CC1)CC(C)(C)O2 (stereo not shown) [CBK307654] | 108 |
| CC(C)CCN(C)C(=O)c1cccc(S(=O)(=O)NCc2ccsc2)c1 [CBK307656] | 110 |
| CN(Cc1nccs1)C(=O)NC1CCN(Cc2cccc(O)c2)CC1 [CBK307657] | 96.7 |
| Cc1nn(C)c(C)c1-c1ccnc(NCCC2(O)CCN(C)CC2)n1 [CBK307659] | 86.1 |
| CC(=O)Nc1ccc(CNC(=O)CN(C)Cc2cccc(O)c2)cc1 [CBK307660] | 84.8 |
| COc1cc(Cn2ncc(N3CCCCC3)cc2=O)cc(OC)c1 [CBK307662] | 97.1 |
| COc1cccn(CC(=O)N2CCc3sc(C(=O)N(C)C)cc3C2)c1=O [CBK307665] | 90.5 |
| CC(C)c1nc(CCN(C)C(=O)NCc2cnc3cnccn23)no1 [CBK307666] | 108 |

| SMILES | viability at 28.5 h, 10 µM [%] |
| --- | --- |
| Cc1nn(CC(=O)N(C)C(C)c2ccncn2)c(=O)c2ccccc12 (stereo not shown) [CBK307669] | 89 |
| CCc1nnsc1C(=O)Nc1nn(C)c2cccc(N3CCOCC3)c12 [CBK307671] | 84.4 |
| COc1ccccc1CN(Cc1cccnc1)C(=O)NC(C)C(C)C (stereo not shown) [CBK307672] | 85.2 |
| Cc1nc(CCNC(=O)N(Cc2ccsc2)C2CC2)nc2c1CCCC2 [CBK307674] | 88.5 |
| COc1cccc2ncn(CCc3csc(N)n3)c(=O)c12 [CBK307679] | 81.9 |
| COCCN1CC(CNC(=O)c2ccc(N3CCCC3)c(Cl)c2)CC1=O (stereo not shown) [CBK307680] | 84 |
| CN1CCC(OCCCn2ccnc2-c2nccn2C)CC1 [CBK307683] | 96.2 |
| CCC(C(=O)Nc1nccs1)N(C)Cc1n[nH]c2c1CCC2 (stereo not shown) [CBK307685] | 99 |
| CC1(C)Cc2nc(N3CCOCC3)ncc2C(NC(=O)C2CCCC2)C1 (stereo not shown) [CBK307687] | 115 |
| CCCc1ccc(-c2nccn2CCn2cc(C)nn2)o1 [CBK307688] | 101 |
| Cn1ncc(N2CCC(CNC(=O)Cc3ccc(O)c(Cl)c3)C2)cc1=O (stereo not shown) [CBK307689] | 113 |
| Cc1nc(C2CC(O)C2)cc(N(C)CCOc2cccc(Cl)c2)n1 (stereo not shown) [CBK307691] | 94.6 |
| CCOc1ccc(-c2ccnc(NCC3CCCOC3)n2)cc1C(=O)O (stereo not shown) [CBK307694] | 88.2 |
| Cc1ccc(C)c(OCCN(C)c2cc(C3CC(N)C3)nc(N)n2)c1 (stereo not shown) [CBK307695] | 45.4 |
| CCOc1ccc(-c2ccnc(N3CCN(CC)CC3)n2)cc1C(=O)O [CBK307697] | 80.6 |
| CCC(O)CNC(=O)c1coc(COc2ccc3sc(C)nc3c2)n1 (stereo not shown) [CBK307700] | 90.8 |
| Cn1ncc2c(NCC(=O)N3CCNCC3)nc(C(C)(C)C)nc21 [CBK307702] | 120 |
| CCCOC1CCCN(c2nccc(-c3cc(C(=O)O)ccn3)n2)C1 (stereo not shown) [CBK307703] | 101 |
| COCCNc1nc2c(c(N3CCC(C#N)CC3)n1)CCNCC2 [CBK307706] | 86.6 |
| Cc1ccc2nc(N3CCCC(O)C3)c(CN3CCN(C)CC3)cc2c1 (stereo not shown) [CBK307710] | 100 |
| CCN(CCc1nc2cc(OC)ccc2[nH]1)C(=O)c1ccc(=O)n(C)n1 [CBK307712] | 108 |
| COc1ccccc1CN(Cc1cccnc1)C(=O)CCC(F)(F)F [CBK307713] | 92.3 |
